Reference: patent US20250154105A1, “POLYCYCLIC COMPOUND AND USE THEREOF” (TYK MEDICINES, INC., priority 2021, published 2025)

Each compound was assayed on human pleural mesothelioma cells NCI-H226 (assay: Cell anti-proliferation experiment (CCK8), NCI-H226).
Assay type: cell-based
Procedure, shortened: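 Viability was measured by CCK-8 (3 h, A450) after 3-day treatment with 0.15–333.33 nM compound in 0.1% DMSO medium. Curve-fitted IC50 was based on viability normalised to no-drug and cell-free controls.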
An IC50 of no more than 1 µM was found for C[C@H](NC(=O)c1ccc2c(c1)c1cnccc1c(=O)n2-c1ccc(C(F)(F)F)cc1)c1ccccn1 [Example T-253] in this work.
An IC50 of no more than 1 µM was found for Cc1cc(=O)n(-c2ccc(C(F)(F)F)cc2)c2ccc(C(=O)N[C@@H](C)c3ccccn3)cc12 [Example T-277] in this work.
An IC50 of no more than 1 µM was found for CNS(=O)(=O)c1ccc2c(c1)c1cn(C)nc1c(=O)n2-c1ccc(C(F)(F)F)cc1 [Example T-32] in this work.
An IC50 of no more than 1 µM was found for C[C@H](NC(=O)c1ccc2c(c1)c1nn(C)cc1c(=O)n2-c1ccc(C(F)(F)F)cc1)c1ccccn1 [Example T-105] in this work.
An IC50 of no more than 1 µM was found for C[C@H](NC(=O)c1ccc2c(c1)c1ccccc1c(=O)n2-c1ccc(C(F)(F)F)cc1)c1ccccn1 [Example T-272] in this work.
